Laboratory results reported in patent US4316839A, “Imidazodiazepine derivatives” (Hoffman-La Roche Inc., priority 1979, dated 1982).

What was measured:
[1] = target: specific benzodiazepine receptors in the cerebral cortex; test: inhibition of the binding of tritiated diazepam at the specific benzodiazepine receptors in the cerebral cortex
Method: The affinity of compounds of formula I to the central benzodiazepine receptors was determined according to the method described in Life Science 20, 2101-2110 (1977) and Science 198, 849-851 (1977). According to this method, the inhibition of the binding of tritiated diazepam at the specific benzodiazepine receptors in the cerebral cortex by test substances is ascertained. The IC50 ("50% inhibiting concentration") is that concentration of the test substance which brings about a 50 percent inhibition of the specific binding of the tritiated diazepam at the specific benzodiazepine receptors in the cerebral cortex.
(§1) In the following Table there are compiled the results which have been obtained with representative compounds of formula I. The ED50 value is given for each compound listed in the Table. The ED50 is the amount of the test compound in mg/kg (p.o.) which counteracts in 50% of the animals the diazepam effect in the foregoing test. Moreover, the Table contains the IC50 value (defined hereinbefore) for all test compounds listed therein as well as details concerning the acute toxicity of certain compounds (LD50 in mg/kg following single oral administration to mice).

[2] = tested on: diazepam effect in the pentetrazole test; test: pentetrazole test: antagonism of the diazepam effect in mice; format: in vivo; conditions: for ED50: Mus musculus, po, mice, diazepam 5 mg/kg i.p. 1 hour and test compound 15 min before pentetrazole 120 mg/kg i.p.
Method: This property was used as a basis for the test described hereinafter which permits the determination of compounds which are capable of antagonising the central properties of 1,4-benzodiazepines which have tranquillising activity.
The antagonistic activity of the compounds tested, i.e. their ability to counteract the activity of diazepam in the pentetrazole test, is determined by counting the mice which suffer spasmodic seizures in this test.
as §1

[3] = acute toxicity following single oral administration to mice; conditions: mouse, in vivo
Excerpt: as §1

[4] = tested on: central activities of diazepam; test: antagonism of the central activities of diazepam (sleep/waking behaviour) in male albino rats; format: in vivo
Excerpt: Male albino rats (body weight about 165 g) are used for this test.

[5] = compounds of formula I with A = group (a)
[6] = thieno derivatives, A = group (b)
[7] = 20 mg/kg i.p., then after 30 min diazepam 5 mg/kg i.v.

Row | Compound | IC50 [1, 5] [µM] | ED50 [2] [mg/kg] | also measured
1 | CCOC(=O)c1ncn2c1C1C=CCN1C(=O)c1ccccc1-2 (racemic) [Example 43, ethyl (R,S)-11,13a-dihydro-9-oxo-9H-imidazo[1,5-a]pyrrolo[2,1-c][1,4]benzodiazepine-1-carboxylate] | 2.3 | 3.9 | 
2 | COC(=O)c1ncn2c1CN(C)C(=O)c1ccccc1-2 [Example 24, methyl 5,6-dihydro-5-methyl-6-oxo-4H-imidazo[1,5-a][1,4]benzodiazepine-3-carboxylate] | 9 | 13.5 | 
3 | CN1Cc2c(C#N)ncn2-c2ccc(F)cc2C1=O [Example 7, 8-fluoro-5,6-dihydro-5-methyl-6-oxo-4H-imidazo[1,5-a][1,4]benzodiazepine-3-carbonitrile] | 93 | 4.2 | 
4 | N#Cc1ncn2c1[C@@H]1CCCN1C(=O)c1ccccc1-2 [Example 42, (S)-11,12,13,13a-tetrahydro-9-oxo-9H-imidazo[1,5-a]pyrrolo[2,1-c][1,4]benzodiazepine-1-carbonitrile] | 31 | 12.1 | 
5 | CC(C)OC(=O)c1ncn2c1CN(C)C(=O)c1ccccc1-2 [Example 25, isopropyl 5,6-dihydro-5-methyl-6-oxo-4H-imidazo[1,5-a][1,4]benzodiazepine 3-carboxylate] | 12 | 7 | 
6 | COC(=O)c1ncn2c1[C@@H]1CCCN1C(=O)c1sccc1-2 [Example 35, methyl (S)-10,11,12,12a-tetrahydro-8-oxo-8H-imidazo[5,1-c]pyrrolo[1,2-a]thieno[3,2-e][1,4]diazepine-1-carboxylate] |  | 0.22 | IC50 [1, 6]: 0.0021 µM
7 | CN1Cc2c(C#N)ncn2-c2ccccc2C1=O [Example 18, 5,6-dihydro-5-methyl-6-oxo-4H-imidazo[1,5-a][1,4]benzodiazepine-3-carbonitrile] | 100 | 2.6 | LD50 [3]: 1250 mg/kg
8 | CCOC(=O)c1ncn2c1C1C=CCN1C(=O)c1c(F)cccc1-2 (stereo not drawn) [Example 11, ethyl 8-fluoro-11,13a-dihydro-9-oxo-9H-imidazo[1,5-a]pyrrolo[2,1-c][1,4]benzodiazepine-1-carboxylate] | 2.1 | 1.8 | LD50 [3]: 500 to 1000 mg/kg
9 | CC(C)OC(=O)c1ncn2c1[C@@H]1CCCN1C(=O)c1ccccc1-2 [Example 33, isopropyl (S)-11,12,13,13a-tetrahydro-9-oxo-9H-imidazo[1,5-a]pyrrolo[2,1-c][1,4]benzodiazepine-1-carboxylate] | 3 | 18.6 | 
10 | CCOC(=O)c1ncn2c1CN(C)C(=S)c1ccccc1-2 [Example 27, ethyl 5,6-dihydro-5-methyl-6-thioxo-4H-imidazo[1,5-a][1,4]benzodiazepine-3-carboxylate] | 6 | 8.9 | 
11 | CCOC(=O)c1ncn2c1CN(C)C(=O)c1sccc1-2 [Example 36, ethyl 5,6-dihydro-5-methyl-6-oxo-4H-imidazo[1,5-a]thieno[2,3-f][1,4]diazepine-3-carboxylate] |  | 12.6 | IC50 [1, 6]: 0.0011 µM
12 | CCOC(=O)c1ncn2c1CN(C)C(=O)c1ccccc1-2 [Example 16, ethyl 5,6-dihydro-5-methyl-6-oxo-4H-imidazo[1,5-a][1,4]benzodiazepine-3-carboxylate] | 3 | 10.9 | waking of diazepam-treated animals ([4]; 5 mg/kg i.v., 5 or 15 min after diazepam 5 mg/kg i.v. or 30 min after diazepam 10 mg/kg i.p.): the animals stand up immediately and move around; behaviour after test substance alone ([4]; 20 mg/kg i.p.): the animals remain awake and show a normal behaviour; duration of waking phase [4, 7]: at least 30 minutes; symptoms after subsequent diazepam [4, 7]: in the first 2 minutes after the injection slight sedation and ataxia, but these symptoms rapidly disappear; antagonism of the central activities of diazepam ([4]; rats, overall finding): antagonises the central activities of the known 1,4-benzodiazepine derivative diazepam; LD50 [3]: > 5000 mg/kg
13 | CCOC(=O)c1ncn2c1[C@@H]1CCCN1C(=O)c1sccc1-2 [Example 34, ethyl (S)-10,11,12,12a-tetrahydro-8-oxo-8H-imidazo[5,1-c]pyrrolo[1,2-a]thieno[3,2-e][1,4]diazepine-1-carboxylate] |  | 1.3 | IC50 [1, 6]: 0.0009 µM
14 | CCOC(=O)c1ncn2c1[C@@H]1CCCN1C(=O)c1c(Cl)cccc1-2 [Example 14, ethyl (S)-8-chloro-11,12,13,13a-tetrahydro-9-oxo-9H-imidazo[1,5-a]pyrrolo[2,1-c][1,4]benzodiazepine-1-carboxylate] | 1.7 | 1 | LD50 [3]: 750 to 1500 mg/kg
15 | CCOC(=O)c1ncn2c1[C@@H]1CCCN1C(=O)c1c(C)cccc1-2 [Example 29, ethyl (S)-11,12,13,13a-tetrahydro-8-methyl-9-oxo-9H-imidazo[1,5-a]pyrrolo[2,1-c]benzodiazepine-1-carboxylate] | 5 | 6.5 | 
16 | CC(C)OC(=O)c1ncn2c1CN(C)C(=O)c1cc(F)ccc1-2 [Example 4, isopropyl 8-fluoro-5,6-dihydro-5-methyl-6-oxo-4H-imidazo [1,5-a][1,4]benzodiazepine-3-carboxylate] | 3.9 | 6.6 | LD50 [3]: > 5000 mg/kg
17 | COC(=O)c1ncn2c1CN(C)C(=O)c1cc(F)ccc1-2 [Example 3, methyl 8-fluoro-5,6-dihydro-5-methyl-6-oxo-4H-imidazo[1,5-a][1,4]benzodiazepine-3-carboxylate] | 6 | 4.9 | 
18 | CCOC(=O)c1ncn2c1CN(C)C(=S)c1cc(F)ccc1-2 [Example 6, ethyl 8-fluoro-5,6-dihydro-5-methyl-6-thioxo-4H-imidazo[1,5-a][1,4]benzodiazepine-3-carboxylate] | 2.5 | 6.3 | 
19 | CCOC(=O)c1ncn2c1CN(C)C(=O)c1c(F)cccc1-2 [Example 10, ethyl 7-fluoro-5,6-dihydro-5-methyl-6-oxo-4H-imidazo[1,5-a][1,4]benzodiazepine-3-carboxylate] | 2 | 2.1 | LD50 [3]: > 5000 mg/kg
20 | CN1C(=O)CN=C(c2ccccc2)c2cc(Cl)ccc21 [diazepam, reference compound] |  |  | falling asleep / rousing reflex ([4]; diazepam 5 mg/kg i.v.): fall asleep immediately, no longer show rousing reflex; sleep in the lateral position, duration ([4]; diazepam 5 mg/kg i.v.): at least 60 minutes; time to slowly wake up ([4]; diazepam 5 mg/kg i.v.): about 1.5 hours; falling asleep ([4]; diazepam 10 mg/kg i.p.): fall asleep within a few minutes; sleep duration ([4]; diazepam 10 mg/kg i.p.): 2 to 3 h; protection from spasmodic seizures in the pentetrazole test ([2]; diazepam 5 mg/kg i.p., more than 900 mice): protected all experimental animals from spasmodic seizures
21 | COC(=O)c1ncn2c1[C@@H]1CCCN1C(=O)c1ccccc1-2 [Example 31, methyl (S)-11,12,13,13a-tetrahydro-9-oxo-9H-imidazo[1,5-a]pyrrolo[2,1-c][1,4]benzodiazepine-1-carboxylate] | 32 | 3.5 | LD50 [3]: 2000 to 4000 mg/kg
22 | CCOC(=O)c1ncn2c1CN(C)C(=O)c1c(C)cccc1-2 [Example 28, ethyl 5,6-dihydro-5,7-dimethyl-6-oxo-4H-imidazo[1,5-a][1,4]benzodiazepine-3-carboxylate] | 5 | 7.1 | 
23 | CCOC(=O)c1ncn2c1[C@@H]1CCCN1C(=O)c1cc(F)ccc1-2 [Example 12, ethyl (S)-7-fluoro-11,12,13,13a-tetrahydro-9-oxo-9H-imidazo[1,5-a]pyrrolo[2,1-c][1,4]benzodiazepine-1-carboxylate] | 6 | 8.9 | 
24 | CCOC(=O)c1ncn2c1CN(C)C(=O)c1c(Cl)cccc1-2 [Example 13, ethyl 7-chloro-5,6-dihydro-5-methyl-6-oxo-4H-imidazo[1,5-a][1,4]benzodiazepine-3-carboxylate] | 3 | 0.48 | 
25 | COC(=O)c1ncn2c1CN(C)C(=O)c1sccc1-2 [Example 37, methyl 5,6-dihydro-5-methyl-6-oxo-4H-imidazo[1,5-a]thieno[2,3-f][1,4]diazepine-3-carboxylate] |  | 0.83 | IC50 [1, 6]: 0.0012 µM
